In publication PMC10534693, “A High-Performance Liquid Chromatography with Photodiode Array Detection Method for Simultaneous Determination of Three Compounds Isolated from Wikstroemia ganpi: Assessment of the Effects on Cytochrome P450-Mediated Metabolism In Vitro and In Vivo” (Nutrients, 2023):
Read-outs that look alike come from different tables or passages of the source.

Assays:
[1] = In vivo pharmacokinetic study of BUS with or without WGM in rats; conditions: rat, plasma, po, 30 mg/kg; for AUC(0-inf) / Cmax / half-life: mean ± SD, n = 6
Procedure: The blood was immediately centrifuged at 3000× g for 10 min at 4 °C to obtain the plasma, which was pretreated and analyzed using the UPLC-MS/MS method.
(§1) The average plasma pharmacokinetic parameters, including the area under the curve from time 0 extrapolated to infinity (AUCinf) and the terminal half-life (t1/2), were determined using a non-compartment model (WinNonlin Ver. 3.1; Certara, Inc., Princeton, NJ, USA). The peak time (Tmax) and maximal concentration (Cmax) were obtained directly from the observed plasma concentration-time profiles. A t-test was used to compare two unpaired means, and a p-value of below 0.05 was considered statistically significant.

[2] = Stability of marker components in WGM sample and reference stock solutions (HPLC-PDA peak area); assay type: physicochemical; conditions: for Peak Area (%) 6 h / Peak Area (%) 24 h / Peak Area (%) 48 h / Peak Area (%) 72 h: vs 0 h, n = 5; for Decrease of peak area / Increase of peak area: Reference solution
From the text: The developed HPLC-PDA simultaneous analysis conditions were validated according to ICH Q2(R1) guidelines. The validation characteristics included specificity, linearity, detection limit, quantitation limit, precision, recovery, and stability. Specificity is defined as the ability to clearly identify an analyte in a sample containing a mixture of impurities. This was verified by comparing and overlaying the chromatograms and PDA spectra obtained from the WGM samples and the reference mixture to confirm that the retention time (tR), spectral pattern, and maximum absorption wavelength (λmax) of the three reference compounds were consistent. Linearity is a test used to derive calibration curves by obtaining measurements that are directly proportional to the concentration of the substance being examined within a certain range. The stock solutions of 7-methoxyluteolin-5-O-glucoside (1), pilloin 5-O-β-D-glucopyranoside (2), and rutarensin (3) were diluted to six target concentrations (5.0, 50.0, 250.0, 400.0, 500.0, and 600.0 μg/mL) in DMSO/MeOH (50:50, v/v) mixtures, and six replicates (n = 6) were performed for each working solution. The calibration curve was expressed using a linear equation (y = ax + b) through linear regression analysis as a function of the area (y) vs. the concentration (x) of each reference peak, and the slope (a), y-intercept (b), and correlation coefficient (r^2) were calculated. The correlation coefficients for the acceptance criteria exceeded 0.999. The detection limit (DL) and quantitation limit (QL) are the minimum detection and quantitation limits of the analyte in the sample, respectively, that can be reliably quantified. These values were measured using the standard deviation (SD) of the y-intercept (σ) and the slope of the calibration curve (S) derived based on the linearity evaluation and were calculated as follows: DL = 3.3 σ/S and QL = 10 σ/S. Precision is an analytical procedure used to evaluate repeatability and reproducibility. The repeatability of the experiment was assessed by measuring the intra- and inter-day precision. Three reference compounds were repeated five times (n = 5) at low, medium and high concentration levels (10.0, 100.0, and 300.0 µg/mL). Intra-day precision was injected on the same day, while inter-day precision was injected on days 1, 3, and 5. The results were determined using the relative standard deviation (RSD) of the peak area. The %RSD was calculated as follows: RSD (%) = (standard deviation/mean measured amount) × 100. %RSD value of <2% means that the developed HPLC-PDA method is precise and reproducible enough for simultaneous analysis and evaluation of the three compounds. […] The analysis was repeated three times (n = 3), and the measured values were calculated as follows: % recovery = (found concentration-original concentration)/spiked concentration × 100. Stability was used to evaluate the degree of change in the solution concentration with storage conditions and time. […] The stability results were evaluated as the %peak area change and %RSD between the mean peak area of the control group (0 h) and that of the experimental group (6, 24, 48, and 72 h).

CYP3A = experiment: Inhibition of CYP3A-mediated metabolism (disappearance) of buspirone in rat liver S9 fraction; assay type: in vitro ADME; conditions: 1 μM BUS; for IC50 at 30 min: probe buspirone (BUS), rat liver S9 fraction 1 mg/mL, n = 5
Procedure: CYP isoforms-specific probe substrates were BUS for CYP3A, DIC for CYP2C, and DEX for CYP2D [34, 35, 37]. Dose–response curves assessed metabolic inhibition of BUS in the presence of 1 μM BUS and 10 different concentrations (0, 0.1, 0.5, 1, 2, 5, 10, 20, 50, and 100 μM) of 7-methoxyluteolin-5-O-glucoside, pilloin 5-O-β-D-glucopyranoside or rutarensin. The mixture without substrate and inhibitor was incubated for 5 min at 37 °C, after which the substrate and inhibitor were added to initiate the enzyme reaction. After incubating BUS (reaction time: 30 min), DIC and DEX (reaction time: 60 min) at 37 °C at a speed of 500 oscillations/min, a sample was obtained from the reaction mixture and mixed with cold acetonitrile containing an internal standard (IS) to terminate the reaction. After sample preparation, the samples were analyzed using the ultra-performance liquid chromatography–tandem mass spectrometry (UPLC-MS/MS) method (see the sections entitled ‘Biological Sample Preparation’ and ‘UPLC-MS/MS Conditions’ in the Supplementary Materials).
as §1

[3] = BUS 30 mg/kg oral co-administered with 1 g/kg WGM
[4] = Reference solution (DMSO/MeOH 50:50), 4 °C
[5] = Reference solution (DMSO/MeOH 50:50), R.T.

| Peak Area (%) 6 h [2, 4] | Peak Area (%) 24 h [2, 4] | Peak Area (%) 48 h [2, 4] | Peak Area (%) 72 h [2, 4] | Peak Area (%) 6 h [2, 5] | Peak Area (%) 24 h [2, 5] | Peak Area (%) 48 h [2, 5] | Peak Area (%) 72 h [2, 5] | Decrease of peak area ([2]; room temperature, after 6 h) | Peak Area (%) 6 h ([2]; WGM solution, 4 °C) | Peak Area (%) 24 h ([2]; WGM solution, 4 °C) | Peak Area (%) 48 h ([2]; WGM solution, 4 °C) | Peak Area (%) 72 h ([2]; WGM solution, 4 °C) | Peak Area (%) 6 h ([2]; WGM solution, R.T.) | Peak Area (%) 24 h ([2]; WGM solution, R.T.) | Peak Area (%) 48 h ([2]; WGM solution, R.T.) | Peak Area (%) 72 h ([2]; WGM solution, R.T.) | IC50 at 30 min (CYP3A) | also measured | SMILES |
| --- | --- | --- | --- | --- | --- | --- | --- | --- | --- | --- | --- | --- | --- | --- | --- | --- | --- | --- | --- |
| – | – | – | – | – | – | – | – | – | – | – | – | – | – | – | – | – | – | Tmax ([1]; 30 mg/kg oral, with or without WGM, read-out: Tmax of BUS): 5 to 15 min; AUC(0-inf) [1, 3]: 1980 ng·h/mL; Cmax [1, 3]: 2020 ± 619 ng/mL; half-life [1, 3]: 103 ± 27 min; Tmax ([1]; BUS 30 mg/kg oral co-administered with 1 g/kg WGM, n = 6, read-out: Tmax (converted)): 5 min; AUC(0-inf) ([1]; BUS alone, 30 mg/kg oral): 1640 ng·h/mL; Cmax ([1]; BUS alone, 30 mg/kg oral): 1630 ± 762 ng/mL; half-life ([1]; BUS alone, 30 mg/kg oral): 111 ± 23 min; Tmax ([1]; BUS alone, 30 mg/kg oral, n = 6, read-out: Tmax (converted)): 10 min | O=C1CC2(CCCC2)CC(=O)N1CCCCN1CCN(c2ncccn2)CC1 [BUS, Buspirone] |
| 99.15% | 96.60% | 96.58% | 97.39% | 99.46% | 98.56% | 100.34% | 99.03% | 0.54% | 100.10% | 98.87% | 98.63% | 101.60% | 100.80% | 100.10% | 97.43% | 100.99% | 2.73 µM | – | COc1cc(O[C@@H]2O[C@H](CO)[C@@H](O)[C@H](O)[C@H]2O)c2c(=O)cc(-c3ccc(O)c(O)c3)oc2c1 [Compound 1, 7-methoxyluteolin-5-O-glucoside] |
| 99.29% | 102.15% | 104.42% | 101.79% | 101.71% | 103.18% | 107.58% | 103.48% | – | 100.32% | 99.18% | 98.86% | 102.02% | 101.41% | 101.08% | 98.97% | 103.35% | 18.7 µM | Increase of peak area ([2]; 4 °C, after 48 h): 4.42%; Increase of peak area ([2]; R.T., after 48 h): 7.58%; Increase of peak area ([2]; room temperature, after 6 h): 1.71% | COc1cc(O[C@@H]2O[C@H](CO)[C@@H](O)[C@H](O)[C@H]2O)c2c(=O)cc(-c3ccc(OC)c(O)c3)oc2c1 [Compound 2, pilloin 5-O-β-D-glucopyranoside] |
| 98.02% | 99.40% | 98.78% | 101.22% | 96.77% | 98.82% | 98.54% | 98.72% | 3.23% | 100.19% | 99.30% | 98.91% | 102.15% | 101.30% | 101.14% | 98.98% | 103.56% | – | Inhibition of BUS metabolism (dose-response) (CYP3A; rat liver S9 fraction, 0-100 μM marker compound): did not inhibit | COc1cc2cc(Oc3ccc4ccc(=O)oc4c3)c(=O)oc2cc1O[C@@H]1O[C@H](COC(=O)CC(C)(O)CC(=O)O)[C@@H](O)[C@H](O)[C@H]1O (some centres unmarked) [Compound 3, rutarensin] |
